Test results taken from patent publication US9539237B2, “Compositions and methods for drug-sensitization or inhibition of a cancer cell” (The Texas A&M University System, priority 2012, dated 2017).
Where two headings read alike, the source gives them in different places. Numbered stars: 1 amine (or outer) side, 2 acyl side, 3 side chain; on linkers, the order of the positions; unused ones are H or OH. Bridge positions count the residues as written; N and C are the ends. Square brackets hold non-standard residues; d marks the D form. Peptide text beside a SMILES is read from it. I, II: the chains in the order shown. Actinocin(9to1) = Cc1c2oc3c(C)ccc(C(=O)[*:1])c3nc-2c(C(=O)[*:2])c(N)c1=O; NMeV = CN[C@H](C(=O)O)C(C)C; Sar = CNCC(=O)O

Assays:
[1] = system: MMP2; assay: MMP2 secretion ELISA in U2-OS cells; type: cell-based; details: 5 uM RTI-79
[2] = system: total intracellular ROS; assay: Intracellular ROS by CellROX staining and flow cytometry; type: cell-based; details: for Induction of ROS: OVCAR8, ADR-RES and G3 cells, 2 hrs, 10 uM, FIG. 38
Text: Cells were then stained with the fluorescent ROS indicator, CellROX, and subjected to flow cytometry to quantitate total intracellular ROS.
The electron transport chain (ETC) is known to be a primary generator of ROS in the cell. Most of the ROS is generated by Complexes I and III of the ETC. Inhibition of Complex I results in electrons piling up and leaking to react with oxygen to produce ROS.
(§1) MDR/P-gp activity is closely associated with calcium status in the cell, so calcium modulators were tested for effects on ROS. […] Relatively Dox-sensitive lymphoma (CRL2631, 10S, WSU) and ovarian carcinoma (OVCAR8) and more Dox-resistant lymphoma (G3R, 10R, WSUR) and ovarian carcinoma (ADR) were treated with 10 uM […] for 2 hrs. […] Cells were co-stained with the cell-permeable red fluorescent ROS indicator, CellROX, and cell-permeable green fluorescent calcium indicator. Fluo-4AM, and then subjected to flow cytometry to quantitate changes in ROS and calcium levels.
(§2) All samples were analyzed at the same time in flow cytometry.

[3] = system: multi-drug resistant ovarian cancer cell line (NCI/ADR-RES) xenografts; assay: NCI/ADR-RES xenograft efficacy studies in nude mice; type: in vivo; details: DOXIL 7 mg/kg i.v. + RTI-79 25 mg/kg oral
Text: In a sixth efficacy study, we generated xenografts of multi-drug resistant ovarian cancer cell line (NCI/ADR-RES) by implantation of NCI/ADR-RES cell xenografts in the left and right flanks of nude mice, resulting in two tumors per mice. […] Tumor size was monitored.
In a seventh efficacy study, we generated xenografts of multi-drug resistant ovarian cancer cell line (NCI/ADR-RES) by implantation of NCI/ADR-RES cells xenografts in the left and right flanks of nude mice, resulting in two tumors per mouse. […] Tumor size was monitored.

[4] = system: multi-drug resistant ovarian cancer cell line OVCAR-3; assay: Cell growth assay on OVCAR-3 cells; type: cell-based
Text: (§3) In these experiments, the following cell lines were used: CHOP-resistant NHL cell line G3, CHOP-sensitive NHL cell line CRL2631, the multi-drug resistant sarcoma cell line MES-SA-Dx5; multi-drug-resistant breast cancer cell line MDA-MB-231, multi-drug resistant ovarian carcinoma cell line SK-OV3, multi-drug resistant ovarian cancer cell line NCI/ADR-RES, drug-sensitive ovarian cancer cell line OVCAR-5, and multi-drug resistant ovarian cancer cell line OVCAR-3.
(§4) Additional cell lines used include: ovarian cancer OVCAR-8. T lymphoblastoid leukemia MOLT-4, dexamethasone-resistant multiple myeloma MM.1R, myeloid leukemia cells HL-60, osteosarcoma cells U-2 OS, and myeloma RPMI 8226.

[5] = system: multi-drug-resistant breast cancer cell line MDA-MB-231; assay: Cell growth assay on MDA-MB-231 cells; type: cell-based
Text: as §3, §4

[6] = system: primary human fibroblasts; assay: Comparative cytotoxicity on primary human fibroblasts; details: FIG. 3A and 3B
[7] = system: CHOP-resistant G3 NHL cells; assay: Cell growth assay (resazurin fluorescence) on G3 cells; type: cell-based, human; details: for Magnitude of potentiation in combination with doxorubicin: G3; for IC50: Homo sapiens
Procedure: Compositions were tested on CHOP-resistant G3 NHL cells that had been cultivated in RPMI medium for five days. Prior to assay, the cells were counted by haemocytometer and cell concentration standardized to 625,000 cells/ml. Test drugs were solubilized in 100% DMSO and then diluted to final assay concentration with 0.1M phosphate buffered saline (PBS) and a final DMSO concentration of 0.5%. […] The metabolic dye rezasurin was added to the wells of the assay plate at a final concentration of 20 μg/ml and the plates were incubated for an additional 24 hours. The plates were then read in a BMG Polarstar plate reader at wavelength (573-605) and the data plotted as OD versus increasing dilutions (i.e., decreasing total amounts) of rifabutin derivative concentration.
as §3, with “OVCAR-3. […]” for “OVCAR-3.”

[8] = system: multi-drug resistant ovarian carcinoma cell line SK-OV3; assay: Cell growth assay on SK-OV3 cells; type: cell-based, human
Text: as §3, with “OVCAR-3. […]” for “OVCAR-3.”

[9] = system: calcium mobilization; assay: Calcium mobilization by Fluo-4AM staining and flow cytometry; type: cell-based
Procedure: as §1, §2

[10] = Pharmacokinetics (plasma concentration, half-life, tissue absorption); details: after administration
[11] = system: drug-sensitive ovarian cancer cell line OVCAR-5; assay: Cell growth assay on OVCAR-5 cells; type: cell-based
Text: as §3, §4

[12] = system: multi-drug resistant sarcoma cell line MES-SA-Dx5; assay: Cell growth assay on MES-SA-Dx5 cells; type: cell-based
Text: as §3, §4

[13] = system: multi-drug resistant ovarian cancer cell line NCI/ADR-RES; assay: Cell growth assay on NCI/ADR-RES cells; type: cell-based
Text: as §3, §4

[14] = system: VEGF; assay: VEGF secretion ELISA in U2-OS cells; type: cell-based; details: RTI-79
[15] = mice treated with RTI-79 with or without DOX
Procedure: Swiss mice were dosed with levels equal to and exceeding that of intended doses.

[16] = system: T lymphoblastoid leukemia MOLT-4; assay: Cell growth assay on MOLT-4 cells; type: cell-based; details: with Rifabutin vs drug alone
Text: as §4

Molecule | Induction of ROS [2] | Magnitude of potentiation in combination with doxorubicin [4] | Toxicity to normal cells [6] | Magnitude of potentiation in combination with doxorubicin [7] | Magnitude of potentiation in combination with doxorubicin [8] | Magnitude of potentiation in combination with doxorubicin [11] | Magnitude of potentiation in combination with doxorubicin [12] | Magnitude of potentiation in combination with doxorubicin [13] | further results
4-deoxy-3,4[2-spiro-[1-(isobutyloxycarbonyl)-piperidin-4-yl]]-(1H)-imidazo-(2,5-dihydro)rifamycin S [RTI-79] | induced ROS | + (+ potentiation between 1.2 to 2.0 fold increase) | not toxic | ++ (++ potentiation between 2.1 to 5 fold increase) | +++ (+++ potentiation greater than 5 fold increase) | + (+ potentiation between 1.2 to 2.0 fold increase) | ++ (++ potentiation between 2.1 to 5 fold increase) | ++ (++ potentiation between 2.1 to 5 fold increase) | MMP2 secretion [1]: 10.5 ng/million cells; Time after exposure at which increases in ROS were seen ([2]; G3 cells, 10 uM RTI-79): 1 min; Tumor volume lower than in mice receiving only DOXIL ([3]; seventh study, after 46 days): 55%; Tumor volume reduction during the course of the study ([3]; seventh study): 50%; Tumor volume lower than in mice receiving only DOXIL ([3]; sixth study, after 41 days): 66%; Magnitude of potentiation in combination with doxorubicin [5]: + (+ potentiation between 1.2 to 2.0 fold increase); Time of treatment before calcium mobilization occurred ([9]; G3 cells, 10 uM RTI-79): > 15 min; Time to maximal plasma concentration [10]: ≤ 3 h; VEGF secretion [14]: 436 pg/million cells; Heart tissue histology (H&E) and complete blood count and manual differential [15]: no significant differences
11-deoxy-11-amino-4-deoxy-3,4[2-spiro-[1-(isobutyloxycarbonyl)-piperidin-4-yl]]-(1H)-imidazo-(2,5-dihydro)rifamycin S [RTI-176] |  |  | not toxic | +++ (+++ potentiation greater than 5 fold increase) | +++ (+++ potentiation greater than 5 fold increase) | + (+ potentiation between 1.2 to 2.0 fold increase) |  |  | Fold increase in potency over DOX alone ([7]; lymphoma cell line G3): 5.2 fold
Cc1c2oc3c(C)ccc(C(=O)N[C@@H]4C(=O)N[C@H](C(C)C)C(=O)N5CCC[C@H]5C(=O)N(C)CC(=O)N(C)[C@@H](C(C)C)C(=O)O[C@@H]4C)c3nc-2c(C(=O)N[C@@H]2C(=O)N[C@H](C(C)C)C(=O)N3CCC[C@H]3C(=O)N(C)CC(=O)N(C)[C@@H](C(C)C)C(=O)O[C@@H]2C)c(N)c1=O [Actinomycin D, actinomycin D, reference compound] (I: T[dV]P[Sar][NMeV] / II: T[dV]P[Sar][NMeV]; ester I:1-I:C, II:1-II:C; linker I:N-II:N via Actinocin(9to1)) |  |  |  |  |  |  |  |  | Fold increase in potency ([12]; with Rifabutin vs drug alone): 3 fold; Fold increase in potency [16]: >5 fold
CO[C@H]1/C=C/O[C@@]2(C)Oc3c(C)c(O)c4c(c3C2O)C2=NC3(CCN(C(=O)OCC(C)C)CC3)NC2=C(NC(=O)/C(C)=C\C=C\[C@H](C)[C@H](O)[C@@H](C)[C@@H](O)[C@@H](C)[C@H](OC(C)=O)[C@@H]1C)C4=O (stereo partly drawn) [RTI-175, 11-deoxy-11-hydroxy-4-deoxy-3,4[2-spiro-[1-(isobutyloxycarbonyl)-piperidin-4-yl]]-(1H)-imidazo-(2,5-dihydro)rifamycin S] |  | + (+ potentiation between 1.2 to 2.0 fold increase) |  | ++ (++ potentiation between 2.1 to 5 fold increase) | +++ (+++ potentiation greater than 5 fold increase) | ++ (++ potentiation between 2.1 to 5 fold increase) | + (+ potentiation between 1.2 to 2.0 fold increase) | ++ (++ potentiation between 2.1 to 5 fold increase) | IC50 [7]: > 64 µM; IC50 ([7]; read-out: IC50 (μM) with doxorubicin (1 μM)): 1.06 µM
COc1cc2c(cc1OC)CN(CCc1ccc(NC(=O)c3cccc4c(=O)c5cccc(OC)c5[nH]c34)cc1)CC2 [elacridar] | induced ROS |  |  |  |  |  |  |  | Induction of ROS relative to control drugs ([2]; ADR and OVCAR8 cells, FIG. 41A): induced ROS; Induction of calcium ([9]; FIG. 41B): induced calcium
